The values that follow come from US9365522B2, “Pyrazole amide derivative” (AMGEN INC., priority 2015, dated 2016).

This assay addresses T1, human RORγ-LBD (Homo sapiens, UniProt P51449).
T1 construct: made in house; host or cells: E. coli (BL-21)
T1 sequence (P51449 262-518): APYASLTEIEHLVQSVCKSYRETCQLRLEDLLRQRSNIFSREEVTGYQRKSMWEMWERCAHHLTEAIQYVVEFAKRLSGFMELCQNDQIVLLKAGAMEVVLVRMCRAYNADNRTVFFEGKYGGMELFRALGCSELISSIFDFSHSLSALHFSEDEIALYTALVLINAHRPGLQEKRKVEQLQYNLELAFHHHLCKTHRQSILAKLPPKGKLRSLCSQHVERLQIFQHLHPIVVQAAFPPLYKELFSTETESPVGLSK
Description: ROR gamma coactivator peptide recruitment Alphascreen assay (RORγ-LBD binding to GRIP1 coactivator peptide). Format: biochemical. The settings on record: 5 nM human RORγ-LBD, 30 nM 7-β-hydroxycholesterol, 50 nM biotinylated GRIP1 coactivator peptide, overnight incubation at room temperature; read-out: result (pIC50, RORγ coactivator peptide recruitment Alphascreen assay) (converted). The essentials:
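His/Flag-tagged human RORγ-LBD (aa 262-518, E. coli-expressed, 5 nM) with agonist 7-β-hydroxycholesterol (30 nM) and biotinylated GRIP1 LXXLL peptide (50 nM) in HEPES pH 7.4 buffer, 2.5% DMSO. Compound 1-in-2 dilutions; Alphascreen bead signal read after overnight incubation at room temperature; pIC50 calculated.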
For orientation: Alpha assays give light when donor and acceptor beads are brought close together.
Take `CC(C)(C)CN(CCc1c(Cl)cccc1Cl)C(=O)c1cnn([C@H]2CC[C@H](C(=O)O)CC2)c1C(F)(F)F` [Example 523, trans-4-(4-((2-(2,6-dichlorophenyl)ethyl)(2,2-dimethylpropyl)carbamoyl)-5-(trifluoromethyl)-1H-pyrazol-1-yl)cyclohexanecarboxylic acid]: the IC50 was 8.71 nM.

With `CC(C)(C)CN(C[C@H](O)c1c(Cl)cccc1Cl)C(=O)c1cnn([C@H]2CC[C@H](C(=O)O)CC2)c1C(F)(F)F` [Example 524, trans-4-(4-(((2R)-2-(2,6-dichlorophenyl)-2-hydroxyethyl)(2,2-dimethylpropyl)carbamoyl)-5-(trifluoromethyl)-1H-pyrazol-1-yl)cyclohexanecarboxylic acid], the IC50 is 77.6 nM.

Regarding `CC1(C)CCC(N(CC(=O)c2c(Cl)cccc2Cl)C(=O)c2cnn([C@H]3CC[C@H](C(=O)O)CC3)c2C(F)(F)F)CC1` [Example 525, trans-4-(4-((2-(2,6-dichlorophenyl)-2-oxoethyl)(4,4-dimethylcyclohexyl)carbamoyl)-5-(trifluoromethyl)-1H-pyrazol-1-yl)cyclohexanecarboxylic acid], the IC50 was 5.89 nM.

With `O=C(c1cnn([C@H]2CC[C@H](C(=O)O)CC2)c1C(F)(F)F)N(CCc1c(Cl)cccc1Cl)Cc1ccc(C(F)(F)F)cc1` [Example 526, trans-4-(4-((2-(2,6-dichlorophenyl)ethyl)(4-(trifluoromethyl)benzyl)carbamoyl)-5-(trifluoromethyl)-1H-pyrazol-1-yl)cyclohexanecarboxylic acid], the IC50 is 5.89 nM.

As to `O=C(CN(Cc1ccc(C(F)(F)F)cc1)C(=O)c1cnn([C@H]2CC[C@H](C(=O)O)CC2)c1C(F)(F)F)c1c(Cl)cccc1Cl` [Example 527, trans-4-(4-((2-(2,6-dichlorophenyl)-2-oxoethyl)(4-(trifluoromethyl)benzyl)carbamoyl)-5-(trifluoromethyl)-1H-pyrazol-1-yl)cyclohexanecarboxylic acid], the IC50 was 8.32 nM.

Take `Cc1cc(Cl)c(C(=O)CN(Cc2ccc(C(F)(F)F)cc2)C(=O)c2cnn([C@H]3CC[C@H](C(=O)O)CC3)c2C(F)(F)F)c(Cl)c1` [Example 528, trans-4-(4-((2-(2,6-dichloro-4-methylphenyl)-2-oxoethyl)(4-(trifluoromethyl)benzyl)carbamoyl)-5-(trifluoromethyl)-1H-pyrazol-1-yl)cyclohexanecarboxylic acid]: the IC50 is 4.17 nM.

On to `CO[C@H](CN(CC(C)(C)C)C(=O)c1cnn([C@H]2CC[C@H](C(=O)O)CC2)c1C(F)(F)F)c1c(Cl)cc(C)cc1Cl` [Example 530, trans-4-(4-(((2S)-2-(2,6-dichloro-4-methylphenyl)-2-methoxyethyl)(2,2-dimethylpropyl)carbamoyl)-5-(trifluoromethyl)-1H-pyrazol-1-yl)cyclohexanecarboxylic acid], for which the IC50 was 51.3 nM.

As to `CO[C@@H](CN(CC(C)(C)C)C(=O)c1cnn([C@H]2CC[C@H](C(=O)O)CC2)c1C(F)(F)F)c1c(Cl)cc(C)cc1Cl` [Example 531, trans-4-(4-(((2R)-2-(2,6-dichloro-4-methylphenyl)-2-methoxyethyl)(2,2-dimethylpropyl)carbamoyl)-5-(trifluoromethyl)-1H-pyrazol-1-yl)cyclohexanecarboxylic acid], the IC50 is 1070 nM.

In the case of `Cc1cc(Cl)c(C(=O)CN(CC2CCC(C)(C)CC2)C(=O)c2cnn([C@H]3CC[C@](C)(C(=O)O)CC3)c2C(F)(F)F)c(Cl)c1` [Example 532, trans-4-(4-((2-(2,6-dichloro-4-methylphenyl)-2-oxoethyl)((4,4-dimethylcyclohexyl)methyl)carbamoyl)-5-(trifluoromethyl)-1H-pyrazol-1-yl)-1-methylcyclohexanecarboxylic acid], the IC50 was 7.41 nM.
